# Laboratory results as given in ChEMBL document CHEMBL1949653, “Novel heterocyclic DPP-4 inhibitors for the treatment of type 2 diabetes” (Bioorg Med Chem Lett, 2012).
# Tested on: not listed separately
# Test: Oral bioavailability in rat
# Assay type: ADME, organism-based
# Settings: in vivo
row,bioavailability [%],Structure (SMILES)
1,9,CC#CCn1c(N2CCC[C@@H](N)C2)nc2c1c(=O)n(Cc1nc(C)c3ccccc3n1)c(=O)n2C [LINAGLIPTIN]

# Tested on: not listed separately
# Test: Clearance in rat at 1 mg/kg, iv
# Assay type: ADME, organism-based
# Parameters: dose 1 mg/kg, route intravenous
# Settings: in vivo
row,clearance [mL/min/kg],Structure (SMILES)
1,34,CC#CCn1c(N2CCC[C@@H](N)C2)nc2c1c(=O)n(Cc1nc(C)c3ccccc3n1)c(=O)n2C [LINAGLIPTIN]

# Tested on: not listed separately
# Test: Cmax in rat
# Assay type: ADME, organism-based
# Settings: in vivo
row,Cmax [nM],Structure (SMILES)
1,21,CC#CCn1c(N2CCC[C@@H](N)C2)nc2c1c(=O)n(Cc1nc(C)c3ccccc3n1)c(=O)n2C [LINAGLIPTIN]

# Molecular target: Cytochrome P450 3A4 (Homo sapiens, UniProt P08684)
# Sequence (P08684 whole entry): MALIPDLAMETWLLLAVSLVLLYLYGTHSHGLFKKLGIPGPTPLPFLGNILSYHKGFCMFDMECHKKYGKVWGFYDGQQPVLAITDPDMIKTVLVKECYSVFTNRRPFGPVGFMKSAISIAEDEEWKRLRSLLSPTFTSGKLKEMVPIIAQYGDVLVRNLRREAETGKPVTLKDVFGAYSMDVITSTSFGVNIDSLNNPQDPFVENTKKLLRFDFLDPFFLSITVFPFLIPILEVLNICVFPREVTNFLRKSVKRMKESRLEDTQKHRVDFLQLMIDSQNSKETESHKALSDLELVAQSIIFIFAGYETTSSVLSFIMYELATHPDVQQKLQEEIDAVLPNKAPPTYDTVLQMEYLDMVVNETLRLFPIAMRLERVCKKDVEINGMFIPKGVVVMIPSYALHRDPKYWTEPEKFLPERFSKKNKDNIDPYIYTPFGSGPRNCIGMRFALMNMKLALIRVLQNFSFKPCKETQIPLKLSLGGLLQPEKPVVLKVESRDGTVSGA
# Test: Inhibition of CYP3A4
# Assay type: ADME
# Settings: not given
row,IC50 [µM],Structure (SMILES)
1,≤ 3,CC(C)=CCn1c(N2CCCNCC2)c(C#N)c2c1c(=O)n(Cc1c(C#N)cnc3ccccc13)c(=O)n2C
2,≤ 3,Cn1c(=O)n(Cc2nccc3ccccc23)c(=O)c2c1c(C#N)c(N1CCC[C@H](N)C1)n2Cc1ccccc1
3,≤ 3,COc1cccc(C(=O)Cn2c(=O)c3c(c(C#N)c(N4CCC[C@H](N)C4)n3CC=C(C)C)n(C)c2=O)c1
4,≤ 3,CC(C)=CCn1c(N2CCC[C@H](N)C2)c(C#N)c2c1c(=O)n(Cc1nc(C)c3ccccc3n1)c(=O)n2C
5,≤ 3,CC(C)=CCn1c(N2CCC[C@H](N)C2)c(C#N)c2c1c(=O)n(Cc1cnc3ccccc3n1)c(=O)n2C
6,≤ 3,CC(C)=CCn1c(N2CCC[C@H](N)C2)c(C#N)c2c1c(=O)n(Cc1ncccc1C#N)c(=O)n2C
7,≤ 3,COc1cccc(C(=O)Cn2c(=O)c3c(c(C#N)c(N4CCCNCC4)n3CC=C(C)C)n(C)c2=O)c1
8,≤ 3,CC(C)=CCn1c(N2CCCNCC2)c(C#N)c2c1c(=O)n(Cc1nc(C)c3ccccc3n1)c(=O)n2C
9,≤ 3,CC(C)=CCn1c(N2CCCNCC2)c(C#N)c2c1c(=O)n(Cc1cn3ccccc3n1)c(=O)n2C
10,≤ 3,CC(C)=CCn1c(N2CCCNCC2)c(C#N)c2c1c(=O)n(Cc1ncc3ccccc3c1C#N)c(=O)n2C
11,≥ 10,CC#CCn1c(N2CCCNCC2)c(C#N)c2c1c(=O)n(Cc1c(C#N)cnc3ccccc13)c(=O)n2C

# Molecular target: Voltage-gated inwardly rectifying potassium channel KCNH2 (Homo sapiens, UniProt Q12809)
# Sequence (Q12809 whole entry): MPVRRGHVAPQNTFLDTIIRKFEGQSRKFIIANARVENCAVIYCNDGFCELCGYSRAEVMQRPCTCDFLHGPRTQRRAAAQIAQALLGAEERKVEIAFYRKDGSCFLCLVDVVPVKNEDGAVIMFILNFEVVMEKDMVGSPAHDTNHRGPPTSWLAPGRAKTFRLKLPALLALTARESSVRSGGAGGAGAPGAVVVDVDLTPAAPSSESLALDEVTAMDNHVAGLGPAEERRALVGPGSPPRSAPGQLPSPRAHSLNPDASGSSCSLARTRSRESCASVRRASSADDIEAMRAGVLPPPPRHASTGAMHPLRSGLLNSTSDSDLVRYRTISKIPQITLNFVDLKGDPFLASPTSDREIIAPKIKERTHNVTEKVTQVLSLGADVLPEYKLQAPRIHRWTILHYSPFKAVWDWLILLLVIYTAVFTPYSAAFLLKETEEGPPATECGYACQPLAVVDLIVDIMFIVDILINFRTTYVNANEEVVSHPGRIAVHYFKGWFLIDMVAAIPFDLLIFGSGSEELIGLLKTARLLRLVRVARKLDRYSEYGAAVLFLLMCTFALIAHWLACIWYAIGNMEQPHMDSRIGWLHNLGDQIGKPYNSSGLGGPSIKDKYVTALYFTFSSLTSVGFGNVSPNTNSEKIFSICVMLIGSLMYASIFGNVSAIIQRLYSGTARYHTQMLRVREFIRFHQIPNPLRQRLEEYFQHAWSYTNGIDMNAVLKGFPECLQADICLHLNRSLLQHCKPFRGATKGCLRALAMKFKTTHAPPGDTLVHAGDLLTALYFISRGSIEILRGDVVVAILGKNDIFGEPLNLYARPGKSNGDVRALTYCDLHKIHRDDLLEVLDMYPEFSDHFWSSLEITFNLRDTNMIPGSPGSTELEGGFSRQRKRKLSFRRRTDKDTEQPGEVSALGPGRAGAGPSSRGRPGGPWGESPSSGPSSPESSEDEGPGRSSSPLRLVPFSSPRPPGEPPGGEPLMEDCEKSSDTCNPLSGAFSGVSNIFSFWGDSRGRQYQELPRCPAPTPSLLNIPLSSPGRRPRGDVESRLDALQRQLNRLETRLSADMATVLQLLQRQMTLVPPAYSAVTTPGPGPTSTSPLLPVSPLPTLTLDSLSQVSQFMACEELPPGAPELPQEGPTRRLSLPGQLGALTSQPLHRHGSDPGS
# Test: Inhibition of human ERG by dofetilide binding assay
# Settings: not given
row,Structure (SMILES),IC50 [µM]
1,CC(C)=CCn1c(N2CCCNCC2)c(C#N)c2c1c(=O)n(Cc1c(C#N)cnc3ccccc13)c(=O)n2C,0.9
2,CC#CCn1c(N2CCCNCC2)c(C#N)c2c1c(=O)n(Cc1ncc3ccccc3c1C#N)c(=O)n2C,12
3,Cn1c(=O)n(Cc2nccc3ccccc23)c(=O)c2c1c(C#N)c(N1CCC[C@H](N)C1)n2Cc1ccccc1,2.8
4,COc1cccc(C(=O)Cn2c(=O)c3c(c(C#N)c(N4CCC[C@H](N)C4)n3CC=C(C)C)n(C)c2=O)c1,1.6
5,CC(C)=CCn1c(N2CCC[C@H](N)C2)c(C#N)c2c1c(=O)n(Cc1nc(C)c3ccccc3n1)c(=O)n2C,6.7
6,CC(C)=CCn1c(N2CCC[C@H](N)C2)c(C#N)c2c1c(=O)n(Cc1ncccc1C#N)c(=O)n2C,16.9
7,CC#CCn1c(N2CCC[C@H](N)C2)c(C#N)c2c1c(=O)n(Cc1nccc3ccccc13)c(=O)n2C,28.2
8,CC#CCn1c(N2CCC[C@@H](N)C2)c(C#N)c2c1c(=O)n(Cc1nc(C)c3ccccc3n1)c(=O)n2C,21.7
9,CC#CCn1c(N2CCC[C@H](N)C2)c(C#N)c2c1c(=O)n(Cc1nc(C)c3ccccc3n1)c(=O)n2C,> 30
10,COc1cccc(C(=O)Cn2c(=O)c3c(c(C#N)c(N4CCCNCC4)n3CC=C(C)C)n(C)c2=O)c1,1.1
11,CC(C)=CCn1c(N2CCCNCC2)c(C#N)c2c1c(=O)n(Cc1ncc3ccccc3c1C#N)c(=O)n2C,1.8

# Molecular target: T1, Muscarinic acetylcholine receptor M1 (Homo sapiens, UniProt P11229)
# T1 sequence (P11229 whole entry): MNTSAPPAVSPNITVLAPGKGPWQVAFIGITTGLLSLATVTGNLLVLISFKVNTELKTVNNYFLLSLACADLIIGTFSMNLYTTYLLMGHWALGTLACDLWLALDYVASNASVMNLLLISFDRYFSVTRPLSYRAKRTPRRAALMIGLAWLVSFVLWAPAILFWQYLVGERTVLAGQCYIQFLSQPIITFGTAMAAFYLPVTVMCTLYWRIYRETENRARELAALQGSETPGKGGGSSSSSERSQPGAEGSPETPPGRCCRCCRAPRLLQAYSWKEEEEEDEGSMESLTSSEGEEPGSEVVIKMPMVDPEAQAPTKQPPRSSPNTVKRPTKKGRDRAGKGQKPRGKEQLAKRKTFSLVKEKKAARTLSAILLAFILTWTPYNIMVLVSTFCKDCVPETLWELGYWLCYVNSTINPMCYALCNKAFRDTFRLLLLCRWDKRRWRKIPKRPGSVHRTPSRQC
# Test: Inhibition of M1 receptor
# Settings: not given
row,IC50 [µM],Structure (SMILES)
1,> 10,CC(C)=CCn1c(N2CCCNCC2)c(C#N)c2c1c(=O)n(Cc1c(C#N)cnc3ccccc13)c(=O)n2C
2,> 10,CC#CCn1c(N2CCCNCC2)c(C#N)c2c1c(=O)n(Cc1ncc3ccccc3c1C#N)c(=O)n2C
3,> 10,Cn1cnc2c(C#N)c(N3CCNCC3)n(Cc3ccccc3)c2c1=O
4,> 10,COc1cccc(C(=O)Cn2cnc3c(C#N)c(N4CCNCC4)n(Cc4ccccc4)c3c2=O)c1
5,> 10,CC#CCn1c(N2CCNCC2)c(C#N)c2ncn(CC(=O)c3cccc(OC)c3)c(=O)c21
6,> 10,COc1cccc(C(=O)Cn2cnc3c(C#N)c(N4CCNCC4)n(CC=C(C)C)c3c2=O)c1
7,> 10,Cn1cnc2c(C#N)c(N3CCC[C@H](N)C3)n(Cc3ccccc3)c2c1=O
8,> 10,COc1cccc(C(=O)Cn2cnc3c(C#N)c(N4CCC[C@@H](N)C4)n(Cc4ccccc4)c3c2=O)c1
9,> 10,COc1cccc(C(=O)Cn2cnc3c(C#N)c(N4CCC[C@H](N)C4)n(Cc4ccccc4)c3c2=O)c1
10,> 10,N#Cc1c(N2CCC[C@H](N)C2)n(Cc2ccccc2)c2c(=O)n(Cc3ccnc4ccccc34)cnc12
11,> 10,CC#CCn1c(N2CCC[C@@H](N)C2)c(C#N)c2ncn(CC(=O)c3cccc(OC)c3)c(=O)c21
12,> 10,CC#CCn1c(N2CCC[C@H](N)C2)c(C#N)c2ncn(CC(=O)c3cccc(OC)c3)c(=O)c21
13,> 10,CC#CCn1c(N2CCC[C@H](N)C2)c(C#N)c2ncn(Cc3ccnc4ccccc34)c(=O)c21
14,> 10,CC#CCn1c(N2CCC[C@H](N)C2)c(C#N)c2ncn(Cc3nccc4ccccc34)c(=O)c21
15,> 10,COc1cccc(C(=O)Cn2cnc3c(C#N)c(N4CCC[C@@H](N)C4)n(CC=C(C)C)c3c2=O)c1
16,> 10,COc1cccc(C(=O)Cn2cnc3c(C#N)c(N4CCC[C@H](N)C4)n(CC=C(C)C)c3c2=O)c1
17,> 10,CC(C)=CCn1c(N2CCC[C@H](N)C2)c(C#N)c2ncn(Cc3ccnc4ccccc34)c(=O)c21
18,> 10,CC(C)=CCn1c(N2CCC[C@H](N)C2)c(C#N)c2ncn(Cc3nc(C)c4ccccc4n3)c(=O)c21
19,> 10,CC(C)=CCn1c(N2CCC[C@H](N)C2)c(C#N)c2ncn(Cc3ncc4ccccc4n3)c(=O)c21
20,> 10,CC(C)=CCn1c(N2CCC[C@H](N)C2)c(C#N)c2ncn(C)c(=O)c21
21,> 10,N#Cc1c(N2CCCNCC2)n(Cc2ccccc2)c2c(=O)n(Cc3nccc4ccccc34)cnc12
22,> 10,CC(C)=CCn1c(N2CCCNCC2)c(C#N)c2ncn(Cc3nccc4ccccc34)c(=O)c21

row,IC50 [µM],Structure (SMILES)
1,> 10,CC#CCn1c(N2CCCNCC2)c(C#N)c2ncn(Cc3nccc4ccccc34)c(=O)c21
2,> 10,CC#CCn1c(N2CCCNCC2)c(C#N)c2ncn(Cc3nc(C)c4ccccc4n3)c(=O)c21
3,> 10,CC#CCn1c(N2CCCNCC2)c(C#N)c2ncn(Cc3ncc4ccccc4n3)c(=O)c21
4,> 10,COc1cccc(C(=O)Cn2c(=O)c3c(c(C#N)c(N4CCC[C@H](N)C4)n3Cc3ccccc3)n(C)c2=O)c1
5,> 10,Cn1c(=O)n(Cc2nccc3ccccc23)c(=O)c2c1c(C#N)c(N1CCC[C@H](N)C1)n2Cc1ccccc1
6,> 10,Cn1c(=O)c2c(c(C#N)c(N3CCC[C@H](N)C3)n2Cc2ccccc2)n(C)c1=O
7,> 10,COc1cccc(C(=O)Cn2c(=O)c3c(c(C#N)c(N4CCC[C@H](N)C4)n3CC=C(C)C)n(C)c2=O)c1
8,> 10,CC(C)=CCn1c(N2CCC[C@H](N)C2)c(C#N)c2c1c(=O)n(Cc1nccc3ccccc13)c(=O)n2C
9,> 10,CC(C)=CCn1c(N2CCC[C@H](N)C2)c(C#N)c2c1c(=O)n(Cc1nc(C)c3ccccc3n1)c(=O)n2C
10,> 10,CC(C)=CCn1c(N2CCC[C@H](N)C2)c(C#N)c2c1c(=O)n(Cc1cnc3ccccc3n1)c(=O)n2C
11,> 10,CC(C)=CCn1c(N2CCC[C@H](N)C2)c(C#N)c2c1c(=O)n(Cc1ncccc1C#N)c(=O)n2C
12,> 10,CC#CCn1c(N2CCC[C@H](N)C2)c(C#N)c2c1c(=O)n(CC(=O)c1cccc(OC)c1)c(=O)n2C
13,> 10,CC#CCn1c(N2CCC[C@H](N)C2)c(C#N)c2c1c(=O)n(Cc1nccc3ccccc13)c(=O)n2C
14,> 10,CC#CCn1c(N2CCC[C@@H](N)C2)c(C#N)c2c1c(=O)n(Cc1nc(C)c3ccccc3n1)c(=O)n2C
15,> 10,CC#CCn1c(N2CCC[C@H](N)C2)c(C#N)c2c1c(=O)n(Cc1nc(C)c3ccccc3n1)c(=O)n2C
16,> 10,COc1cccc(C(=O)Cn2c(=O)c3c(c(C#N)c(N4CCCNCC4)n3CC=C(C)C)n(C)c2=O)c1
17,> 10,CC(C)=CCn1c(N2CCCNCC2)c(C#N)c2c1c(=O)n(Cc1nccc3ccccc13)c(=O)n2C
18,> 10,CC(C)=CCn1c(N2CCCNCC2)c(C#N)c2c1c(=O)n(Cc1nc(C)c3ccccc3n1)c(=O)n2C
19,> 10,CC(C)=CCn1c(N2CCCNCC2)c(C#N)c2c1c(=O)n(Cc1cn3ccccc3n1)c(=O)n2C
20,> 10,CC(C)=CCn1c(N2CCCNCC2)c(C#N)c2c1c(=O)n(Cc1ncc3ccccc3c1C#N)c(=O)n2C
21,> 10,CC#CCn1c(N2CCCNCC2)c(C#N)c2c1c(=O)n(Cc1nc(C)c3ccccc3n1)c(=O)n2C
22,> 10,CC#CCn1c(N2CCCNCC2)c(C#N)c2c1c(=O)n(Cc1c(C#N)cnc3ccccc13)c(=O)n2C

row,Structure (SMILES),IC50 [µM]
1,CC(C)=CCn1c(N2CCC[C@H](N)C2)c(C#N)c2ncn(Cc3nccc4ccccc34)c(=O)c21,> 10
2,CC#CCn1c(N2CCCNCC2)c(C#N)c2c1c(=O)n(Cc1nccc3ccccc13)c(=O)n2C,> 10

# Species: Rattus norvegicus
# Test: animal or person
# Settings: po, 5 h, read-out: INH
row,Structure (SMILES),inhibition in vivo at 3 mg/kg [%]
1,CC(C)=CCn1c(N2CCC[C@H](N)C2)c(C#N)c2ncn(Cc3nccc4ccccc34)c(=O)c21,60

# Tested on: not listed separately
# Test: Inhibition of Cytochrome P450
# Assay type: ADME
# Settings: not given
row,IC50 [µM],Structure (SMILES)
1,> 10,CC#CCn1c(N2CCCNCC2)c(C#N)c2c1c(=O)n(Cc1c(C#N)cnc3ccccc13)c(=O)n2C

# Tested on: not listed separately
# Test: AUC in rat
# Assay type: ADME, organism-based
# Settings: plasma
row,AUC [µM·h],Structure (SMILES)
1,0.185,CC#CCn1c(N2CCC[C@@H](N)C2)nc2c1c(=O)n(Cc1nc(C)c3ccccc3n1)c(=O)n2C [LINAGLIPTIN]

# Tested on: not listed separately
# Test: Permeability from apical side to basal side of human Caco2 cells
# Settings: Caco-2
row,Papp A→B [×10⁻⁶ cm/s],Structure (SMILES)
1,1.7,CC#CCn1c(N2CCCNCC2)c(C#N)c2ncn(Cc3nc(C)c4ccccc4n3)c(=O)c21
2,0.6,CC#CCn1c(N2CCCNCC2)c(C#N)c2ncn(Cc3ncc4ccccc4n3)c(=O)c21
3,0.8,CC#CCn1c(N2CCC[C@@H](N)C2)nc2c1c(=O)n(Cc1nc(C)c3ccccc3n1)c(=O)n2C [LINAGLIPTIN]

# Tested on: Rattus norvegicus
# Test: Ex-vivo inhibition of DPP4 in Wistar rat at 3 mg/kg, po up to 8 hrs post-administration
# Assay type: functional
# Settings: not given
row,Structure (SMILES),inhibition in vivo at 3 mg/kg [%]
1,CC#CCn1c(N2CCCNCC2)c(C#N)c2c1c(=O)n(Cc1nccc3ccccc13)c(=O)n2C,≥ 70

# Tested on: not listed separately
# Test: Intrinsic clearance in rat liver microsome
# Assay type: ADME
# Settings: liver microsomes, read-out: CLH
row,CLint scaled [mL/min/kg],Structure (SMILES)
1,67,CC(C)=CCn1c(N2CCC[C@H](N)C2)c(C#N)c2ncn(Cc3ncc4ccccc4n3)c(=O)c21
